# Assay results taken from the NIST ThermoML archive (doi:10.1021/je8008254).
# ± gives the expanded uncertainty stated by the source.
# Experiment: xn = mol fraction of the nth substance listed
# Details: 101 kPa, Liquid
compound,measurement,setting,value
CCCCn1cc[n+](C)c1.N#C[S-] [1-butyl-3-methylimidazolium thiocyanate] + CCCO,mass density,"298.15 K, x1 = 0.0267",819.06 ± 1.2 kg/m3
same,viscosity,"298.15 K, x1 = 0.0267",2.26 ± 0.1 mPa·s
same,mass density,"298.15 K, x1 = 0.0833",854.16 ± 1.1 kg/m3
same,viscosity,"298.15 K, x1 = 0.0833",2.87 ± 0.13 mPa·s
same,mass density,"298.15 K, x1 = 0.1849",903.16 ± 0.88 kg/m3
same,viscosity,"298.15 K, x1 = 0.1849",4.27 ± 0.19 mPa·s
same,mass density,"298.15 K, x1 = 0.2538",930.41 ± 0.78 kg/m3
same,viscosity,"298.15 K, x1 = 0.2538",5.34 ± 0.24 mPa·s
same,mass density,"298.15 K, x1 = 0.3429",959.02 ± 0.69 kg/m3
same,viscosity,"298.15 K, x1 = 0.3429",7.42 ± 0.31 mPa·s
same,mass density,"298.15 K, x1 = 0.4577",988.94 ± 0.64 kg/m3
same,viscosity,"298.15 K, x1 = 0.4577",10.9 ± 0.4 mPa·s
same,mass density,"298.15 K, x1 = 0.5868",1015.47 ± 0.77 kg/m3
same,viscosity,"298.15 K, x1 = 0.5868",16.7 ± 0.6 mPa·s
same,mass density,"298.15 K, x1 = 0.6791",1030.55 ± 0.94 kg/m3
same,viscosity,"298.15 K, x1 = 0.6791",20.5 ± 0.8 mPa·s
same,mass density,"298.15 K, x1 = 0.805",1048.14 ± 1.2 kg/m3
same,viscosity,"298.15 K, x1 = 0.805",25.8 ± 1 mPa·s
same,mass density,"298.15 K, x1 = 0.9342",1062.97 ± 1.5 kg/m3
same,viscosity,"298.15 K, x1 = 0.9342",38.6 ± 1.5 mPa·s
same,mass density,"298.15 K, x1 = 1",1069.79 ± 1.6 kg/m3
same,viscosity,"298.15 K, x1 = 1",51.7 ± 1.2 mPa·s
same,mass density,"308.15 K, x1 = 0.0267",811.18 ± 1.3 kg/m3
same,viscosity,"308.15 K, x1 = 0.0267",1.8 ± 0.08 mPa·s
same,mass density,"308.15 K, x1 = 0.0833",846.63 ± 1.1 kg/m3
same,viscosity,"308.15 K, x1 = 0.0833",2.3 ± 0.11 mPa·s
same,mass density,"308.15 K, x1 = 0.1849",895.99 ± 0.91 kg/m3
same,viscosity,"308.15 K, x1 = 0.1849",3.39 ± 0.15 mPa·s
same,mass density,"308.15 K, x1 = 0.2538",923.49 ± 0.81 kg/m3
same,viscosity,"308.15 K, x1 = 0.2538",4.21 ± 0.19 mPa·s
same,mass density,"308.15 K, x1 = 0.3429",952.34 ± 0.72 kg/m3
same,viscosity,"308.15 K, x1 = 0.3429",5.71 ± 0.25 mPa·s
same,mass density,"308.15 K, x1 = 0.4577",982.5 ± 0.66 kg/m3
same,viscosity,"308.15 K, x1 = 0.4577",8.22 ± 0.34 mPa·s
same,mass density,"308.15 K, x1 = 0.5868",1009.21 ± 0.74 kg/m3
same,viscosity,"308.15 K, x1 = 0.5868",12.3 ± 0.5 mPa·s
same,mass density,"308.15 K, x1 = 0.6791",1024.39 ± 0.91 kg/m3
same,viscosity,"308.15 K, x1 = 0.6791",14.8 ± 0.6 mPa·s
same,mass density,"308.15 K, x1 = 0.805",1042.09 ± 1.2 kg/m3
same,viscosity,"308.15 K, x1 = 0.805",18.1 ± 0.7 mPa·s
same,mass density,"308.15 K, x1 = 0.9342",1057.02 ± 1.4 kg/m3
same,viscosity,"308.15 K, x1 = 0.9342",26.2 ± 1 mPa·s
same,mass density,"308.15 K, x1 = 1",1063.89 ± 1.6 kg/m3
same,viscosity,"308.15 K, x1 = 1",34.9 ± 1.3 mPa·s
same,mass density,"318.15 K, x1 = 0.0267",803.18 ± 1.3 kg/m3
same,viscosity,"318.15 K, x1 = 0.0267",1.46 ± 0.07 mPa·s
same,mass density,"318.15 K, x1 = 0.0833",839 ± 1.1 kg/m3
same,viscosity,"318.15 K, x1 = 0.0833",1.87 ± 0.09 mPa·s
same,mass density,"318.15 K, x1 = 0.1849",888.81 ± 0.94 kg/m3
same,viscosity,"318.15 K, x1 = 0.1849",2.75 ± 0.13 mPa·s
same,mass density,"318.15 K, x1 = 0.2538",916.58 ± 0.84 kg/m3
same,viscosity,"318.15 K, x1 = 0.2538",3.4 ± 0.15 mPa·s
same,mass density,"318.15 K, x1 = 0.3429",945.66 ± 0.75 kg/m3
same,viscosity,"318.15 K, x1 = 0.3429",4.49 ± 0.2 mPa·s
same,mass density,"318.15 K, x1 = 0.4577",976.07 ± 0.69 kg/m3
same,viscosity,"318.15 K, x1 = 0.4577",6.43 ± 0.27 mPa·s
same,mass density,"318.15 K, x1 = 0.5868",1003.01 ± 0.71 kg/m3
same,viscosity,"318.15 K, x1 = 0.5868",9.37 ± 0.38 mPa·s
same,mass density,"318.15 K, x1 = 0.6791",1018.27 ± 0.88 kg/m3
same,viscosity,"318.15 K, x1 = 0.6791",11.2 ± 0.5 mPa·s
same,mass density,"318.15 K, x1 = 0.805",1036.08 ± 1.1 kg/m3
same,viscosity,"318.15 K, x1 = 0.805",13.4 ± 0.5 mPa·s
same,mass density,"318.15 K, x1 = 0.9342",1051.09 ± 1.4 kg/m3
same,viscosity,"318.15 K, x1 = 0.9342",18.7 ± 0.7 mPa·s
same,mass density,"318.15 K, x1 = 1",1058.02 ± 1.6 kg/m3
same,viscosity,"318.15 K, x1 = 1",24.2 ± 0.9 mPa·s
same,mass density,"328.15 K, x1 = 0.0267",795 ± 1.3 kg/m3
same,viscosity,"328.15 K, x1 = 0.0267",1.2 ± 0.06 mPa·s
same,mass density,"328.15 K, x1 = 0.0833",831.26 ± 1.2 kg/m3
same,viscosity,"328.15 K, x1 = 0.0833",1.55 ± 0.07 mPa·s
same,mass density,"328.15 K, x1 = 0.1849",881.57 ± 0.98 kg/m3
same,viscosity,"328.15 K, x1 = 0.1849",2.27 ± 0.11 mPa·s
same,mass density,"328.15 K, x1 = 0.2538",909.63 ± 0.87 kg/m3
same,viscosity,"328.15 K, x1 = 0.2538",2.8 ± 0.1 mPa·s
same,mass density,"328.15 K, x1 = 0.3429",939 ± 0.78 kg/m3
same,viscosity,"328.15 K, x1 = 0.3429",3.6 ± 0.2 mPa·s
same,mass density,"328.15 K, x1 = 0.4577",969.67 ± 0.72 kg/m3
same,viscosity,"328.15 K, x1 = 0.4577",5.1 ± 0.2 mPa·s
same,mass density,"328.15 K, x1 = 0.5868",996.84 ± 0.7 kg/m3
same,viscosity,"328.15 K, x1 = 0.5868",7.3 ± 0.3 mPa·s
same,mass density,"328.15 K, x1 = 0.6791",1012.18 ± 0.84 kg/m3
same,viscosity,"328.15 K, x1 = 0.6791",8.7 ± 0.4 mPa·s
same,mass density,"328.15 K, x1 = 0.805",1030.11 ± 1.1 kg/m3
same,viscosity,"328.15 K, x1 = 0.805",10.4 ± 0.4 mPa·s
same,mass density,"328.15 K, x1 = 0.9342",1045.22 ± 1.4 kg/m3
same,viscosity,"328.15 K, x1 = 0.9342",14 ± 0.6 mPa·s
same,mass density,"328.15 K, x1 = 1",1052.19 ± 1.5 kg/m3
same,viscosity,"328.15 K, x1 = 1",16.7 ± 0.7 mPa·s
same,mass density,"338.15 K, x1 = 0.0267",786.6 ± 1.4 kg/m3
same,viscosity,"338.15 K, x1 = 0.0267",1 ± 0.05 mPa·s
same,mass density,"338.15 K, x1 = 0.0833",823.39 ± 1.2 kg/m3
same,viscosity,"338.15 K, x1 = 0.0833",1.3 ± 0.06 mPa·s
same,mass density,"338.15 K, x1 = 0.1849",874.27 ± 1 kg/m3
same,viscosity,"338.15 K, x1 = 0.1849",1.9 ± 0.09 mPa·s
same,mass density,"338.15 K, x1 = 0.2538",902.7 ± 0.9 kg/m3
same,viscosity,"338.15 K, x1 = 0.2538",2.35 ± 0.11 mPa·s
same,mass density,"338.15 K, x1 = 0.3429",932.34 ± 0.81 kg/m3
same,viscosity,"338.15 K, x1 = 0.3429",3.01 ± 0.14 mPa·s
same,mass density,"338.15 K, x1 = 0.4577",963.3 ± 0.75 kg/m3
same,viscosity,"338.15 K, x1 = 0.4577",4.18 ± 0.19 mPa·s
same,mass density,"338.15 K, x1 = 0.5868",990.7 ± 0.73 kg/m3
same,viscosity,"338.15 K, x1 = 0.5868",5.89 ± 0.26 mPa·s
same,mass density,"338.15 K, x1 = 0.6791",1006.14 ± 0.81 kg/m3
same,viscosity,"338.15 K, x1 = 0.6791",6.97 ± 0.3 mPa·s
same,mass density,"338.15 K, x1 = 0.805",1024.2 ± 1.1 kg/m3
same,viscosity,"338.15 K, x1 = 0.805",8.19 ± 0.34 mPa·s
same,mass density,"338.15 K, x1 = 0.9342",1039.4 ± 1.3 kg/m3
same,viscosity,"338.15 K, x1 = 0.9342",10.9 ± 0.4 mPa·s
same,mass density,"338.15 K, x1 = 1",1046.43 ± 1.5 kg/m3
same,viscosity,"338.15 K, x1 = 1",12.7 ± 0.5 mPa·s
same,mass density,"348.15 K, x1 = 0.0267",777.98 ± 1.4 kg/m3
same,viscosity,"348.15 K, x1 = 0.0267",0.848 ± 0.043 mPa·s
same,mass density,"348.15 K, x1 = 0.0833",815.39 ± 1.3 kg/m3
same,viscosity,"348.15 K, x1 = 0.0833",1.1 ± 0.05 mPa·s
same,mass density,"348.15 K, x1 = 0.1849",866.94 ± 1 kg/m3
same,viscosity,"348.15 K, x1 = 0.1849",1.62 ± 0.08 mPa·s
same,mass density,"348.15 K, x1 = 0.2538",895.73 ± 0.94 kg/m3
same,viscosity,"348.15 K, x1 = 0.2538",2 ± 0.09 mPa·s
same,mass density,"348.15 K, x1 = 0.3429",925.71 ± 0.84 kg/m3
same,viscosity,"348.15 K, x1 = 0.3429",2.56 ± 0.12 mPa·s
same,mass density,"348.15 K, x1 = 0.4577",956.97 ± 0.77 kg/m3
same,viscosity,"348.15 K, x1 = 0.4577",3.46 ± 0.16 mPa·s
same,mass density,"348.15 K, x1 = 0.5868",984.6 ± 0.75 kg/m3
same,viscosity,"348.15 K, x1 = 0.5868",4.81 ± 0.22 mPa·s
same,mass density,"348.15 K, x1 = 0.6791",1000.13 ± 0.78 kg/m3
same,viscosity,"348.15 K, x1 = 0.6791",5.64 ± 0.25 mPa·s
same,mass density,"348.15 K, x1 = 0.805",1018.32 ± 1 kg/m3
same,viscosity,"348.15 K, x1 = 0.805",6.62 ± 0.28 mPa·s
same,mass density,"348.15 K, x1 = 0.9342",1033.61 ± 1.3 kg/m3
same,viscosity,"348.15 K, x1 = 0.9342",8.69 ± 0.36 mPa·s
same,mass density,"348.15 K, x1 = 1",1040.7 ± 1.4 kg/m3
same,viscosity,"348.15 K, x1 = 1",9.98 ± 0.41 mPa·s
